Active and inactive are the calls of the source. The rule behind the calls is not given here.
The compounds below were run against Urease (Canavalia ensiformis) (UniProt P07374) (assay: (§1) Inhibition of jack bean urease).
Sequence of Urease (Canavalia ensiformis) (P07374 whole entry, looked up): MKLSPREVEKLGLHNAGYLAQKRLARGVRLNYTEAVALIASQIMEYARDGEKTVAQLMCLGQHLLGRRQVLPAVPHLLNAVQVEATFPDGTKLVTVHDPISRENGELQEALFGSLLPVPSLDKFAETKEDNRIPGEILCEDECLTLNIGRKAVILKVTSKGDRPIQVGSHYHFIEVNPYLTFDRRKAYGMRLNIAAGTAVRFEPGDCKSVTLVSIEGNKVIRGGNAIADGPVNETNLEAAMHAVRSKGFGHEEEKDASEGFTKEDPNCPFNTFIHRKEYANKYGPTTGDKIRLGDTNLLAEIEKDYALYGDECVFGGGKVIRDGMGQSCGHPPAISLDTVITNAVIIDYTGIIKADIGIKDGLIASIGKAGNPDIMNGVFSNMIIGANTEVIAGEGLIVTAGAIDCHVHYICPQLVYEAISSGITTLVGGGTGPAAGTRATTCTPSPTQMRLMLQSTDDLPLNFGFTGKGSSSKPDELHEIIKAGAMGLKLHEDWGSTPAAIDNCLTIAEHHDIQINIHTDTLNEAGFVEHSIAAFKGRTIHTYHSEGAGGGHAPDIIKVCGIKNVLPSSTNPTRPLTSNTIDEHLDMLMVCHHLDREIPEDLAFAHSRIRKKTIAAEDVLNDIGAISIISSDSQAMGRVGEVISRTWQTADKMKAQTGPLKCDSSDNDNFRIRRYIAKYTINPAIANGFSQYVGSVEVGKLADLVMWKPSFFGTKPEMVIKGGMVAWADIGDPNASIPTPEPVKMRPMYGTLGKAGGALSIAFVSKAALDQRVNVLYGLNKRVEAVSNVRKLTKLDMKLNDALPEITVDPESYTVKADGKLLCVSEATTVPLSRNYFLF

In the case of CN(C)C(=[Se])N1CCOCC1, the Activity is reported as “inactive”.
For CN(C)C(=S)N1CCOCC1, the Activity was “inactive”.

What follows are compounds tested against Urease (Canavalia ensiformis, UniProt P07374) (assay: as §1).
Sequence of Urease (P07374 whole entry): as the sequence (P07374 whole entry, looked up) above

First: CN(C)C(=S)Nc1ccc(Br)cc1
Second: CN(C)C(=[Se])NCc1ccc(Br)cc1
The Ki of the first is 1.9-fold higher: 0.255 µM for the first, 0.135 µM for the second. The second binds more tightly here.

First: C[C@H](NC(=[Se])N(C)C)c1cccc2ccccc12
Second: CC(C)N(C(=[Se])N(C)C)C1CCCCC1
The Ki of the first is 3.8-fold higher: 0.094 µM for the first, 0.025 µM for the second. The second binds more tightly here.

CCCCCCCCCCCCNC(=S)N(C)C was tested, and the Ki was 0.124 µM.
